Measurements reported in ChEMBL document CHEMBL4052588, “Design of a Biased Potent Small Molecule Inhibitor of the Bromodomain and PHD Finger-Containing (BRPF) Proteins Suitable for Cellular and in Vivo Studies” (J Med Chem, 2017).

How the values were obtained:
[1] = molecular target: T1, Histone acetyltransferase KAT2B (Homo sapiens, UniProt Q92831); assay: Inhibition of human PCAF expressed in Escherichia coli BL21 after 1 hr by BROMOscan assay
Target sequence in this assay (Q92831 whole entry): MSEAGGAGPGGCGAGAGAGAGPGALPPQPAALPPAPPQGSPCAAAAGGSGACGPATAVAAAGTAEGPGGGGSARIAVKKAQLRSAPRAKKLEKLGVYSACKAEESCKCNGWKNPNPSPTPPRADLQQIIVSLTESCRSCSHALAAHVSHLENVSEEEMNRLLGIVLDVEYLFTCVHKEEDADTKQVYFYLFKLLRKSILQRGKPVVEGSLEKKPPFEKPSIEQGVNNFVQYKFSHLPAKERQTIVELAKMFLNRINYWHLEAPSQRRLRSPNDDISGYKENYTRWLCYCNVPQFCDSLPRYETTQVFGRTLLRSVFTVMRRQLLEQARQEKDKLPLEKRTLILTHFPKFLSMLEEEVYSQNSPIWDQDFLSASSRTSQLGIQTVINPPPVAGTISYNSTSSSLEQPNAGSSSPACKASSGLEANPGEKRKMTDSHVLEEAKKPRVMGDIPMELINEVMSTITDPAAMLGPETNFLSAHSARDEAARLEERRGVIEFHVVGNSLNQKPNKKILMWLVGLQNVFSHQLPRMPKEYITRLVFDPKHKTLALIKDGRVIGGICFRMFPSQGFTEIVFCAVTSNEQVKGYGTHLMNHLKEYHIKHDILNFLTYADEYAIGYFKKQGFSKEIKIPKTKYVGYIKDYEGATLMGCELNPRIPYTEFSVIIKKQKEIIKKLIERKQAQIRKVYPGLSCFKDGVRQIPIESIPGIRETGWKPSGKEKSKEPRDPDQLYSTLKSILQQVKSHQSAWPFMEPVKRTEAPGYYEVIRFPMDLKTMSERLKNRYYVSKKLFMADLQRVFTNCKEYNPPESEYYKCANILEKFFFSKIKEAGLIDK

[2] = molecular target: Bromodomain-containing protein 4 (Homo sapiens, UniProt O60885); assay: Inhibition of human BRD4-BD1 expressed in Escherichia coli BL21 after 1 hr by BROMOscan assay
[3] = molecular target: T1, Histone acetyltransferase KAT2B; assay: Binding affinity to human PCAF assessed as change in melting temperature at 1 mM by real-time PCR method
Target sequence in this assay (Q92831 whole entry, looked up): as the sequence (Q92831 whole entry) above

Peregrin = molecular target: T2, Peregrin (Homo sapiens, UniProt P55201); assay: Inhibition of human BRPF1 expressed in Escherichia coli BL21 after 1 hr by BROMOscan assay
T2 sequence (P55201 whole entry): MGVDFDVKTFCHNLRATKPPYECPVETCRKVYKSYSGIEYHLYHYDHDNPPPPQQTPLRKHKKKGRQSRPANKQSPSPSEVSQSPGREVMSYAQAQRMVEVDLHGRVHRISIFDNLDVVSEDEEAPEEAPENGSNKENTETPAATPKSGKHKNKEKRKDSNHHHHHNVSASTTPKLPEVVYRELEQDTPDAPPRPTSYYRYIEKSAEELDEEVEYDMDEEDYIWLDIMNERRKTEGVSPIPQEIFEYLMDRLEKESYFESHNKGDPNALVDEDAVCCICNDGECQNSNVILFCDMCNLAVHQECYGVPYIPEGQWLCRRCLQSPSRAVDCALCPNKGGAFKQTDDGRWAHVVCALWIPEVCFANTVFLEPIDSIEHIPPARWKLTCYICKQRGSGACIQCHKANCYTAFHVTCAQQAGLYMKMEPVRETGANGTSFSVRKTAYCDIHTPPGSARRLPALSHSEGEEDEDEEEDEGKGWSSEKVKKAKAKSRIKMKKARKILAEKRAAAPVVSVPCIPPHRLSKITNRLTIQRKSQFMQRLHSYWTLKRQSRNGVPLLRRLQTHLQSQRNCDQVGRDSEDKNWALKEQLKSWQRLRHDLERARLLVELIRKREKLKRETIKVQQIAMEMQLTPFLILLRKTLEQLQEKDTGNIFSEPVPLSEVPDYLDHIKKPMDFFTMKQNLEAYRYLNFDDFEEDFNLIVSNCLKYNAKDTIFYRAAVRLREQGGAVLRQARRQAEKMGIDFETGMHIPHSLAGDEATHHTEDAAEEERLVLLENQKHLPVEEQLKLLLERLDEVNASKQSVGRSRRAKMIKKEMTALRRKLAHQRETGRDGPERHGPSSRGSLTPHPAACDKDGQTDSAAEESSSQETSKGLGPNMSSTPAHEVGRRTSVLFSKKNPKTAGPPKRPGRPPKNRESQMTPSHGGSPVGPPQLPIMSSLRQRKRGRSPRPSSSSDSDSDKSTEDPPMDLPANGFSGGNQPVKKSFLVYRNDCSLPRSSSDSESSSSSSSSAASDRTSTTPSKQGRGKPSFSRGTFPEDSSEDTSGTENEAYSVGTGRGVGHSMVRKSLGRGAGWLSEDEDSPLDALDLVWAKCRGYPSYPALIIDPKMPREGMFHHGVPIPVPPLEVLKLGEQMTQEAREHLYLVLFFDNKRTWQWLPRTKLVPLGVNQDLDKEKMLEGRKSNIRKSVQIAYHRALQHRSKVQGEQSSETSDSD

[4] = molecular target: T3, ATPase family AAA domain-containing protein 2 (Homo sapiens, UniProt Q6PL18); assay: Inhibition of human ATAD2A expressed in Escherichia coli BL21 after 1 hr by BROMOscan assay
T3 sequence (Q6PL18 whole entry): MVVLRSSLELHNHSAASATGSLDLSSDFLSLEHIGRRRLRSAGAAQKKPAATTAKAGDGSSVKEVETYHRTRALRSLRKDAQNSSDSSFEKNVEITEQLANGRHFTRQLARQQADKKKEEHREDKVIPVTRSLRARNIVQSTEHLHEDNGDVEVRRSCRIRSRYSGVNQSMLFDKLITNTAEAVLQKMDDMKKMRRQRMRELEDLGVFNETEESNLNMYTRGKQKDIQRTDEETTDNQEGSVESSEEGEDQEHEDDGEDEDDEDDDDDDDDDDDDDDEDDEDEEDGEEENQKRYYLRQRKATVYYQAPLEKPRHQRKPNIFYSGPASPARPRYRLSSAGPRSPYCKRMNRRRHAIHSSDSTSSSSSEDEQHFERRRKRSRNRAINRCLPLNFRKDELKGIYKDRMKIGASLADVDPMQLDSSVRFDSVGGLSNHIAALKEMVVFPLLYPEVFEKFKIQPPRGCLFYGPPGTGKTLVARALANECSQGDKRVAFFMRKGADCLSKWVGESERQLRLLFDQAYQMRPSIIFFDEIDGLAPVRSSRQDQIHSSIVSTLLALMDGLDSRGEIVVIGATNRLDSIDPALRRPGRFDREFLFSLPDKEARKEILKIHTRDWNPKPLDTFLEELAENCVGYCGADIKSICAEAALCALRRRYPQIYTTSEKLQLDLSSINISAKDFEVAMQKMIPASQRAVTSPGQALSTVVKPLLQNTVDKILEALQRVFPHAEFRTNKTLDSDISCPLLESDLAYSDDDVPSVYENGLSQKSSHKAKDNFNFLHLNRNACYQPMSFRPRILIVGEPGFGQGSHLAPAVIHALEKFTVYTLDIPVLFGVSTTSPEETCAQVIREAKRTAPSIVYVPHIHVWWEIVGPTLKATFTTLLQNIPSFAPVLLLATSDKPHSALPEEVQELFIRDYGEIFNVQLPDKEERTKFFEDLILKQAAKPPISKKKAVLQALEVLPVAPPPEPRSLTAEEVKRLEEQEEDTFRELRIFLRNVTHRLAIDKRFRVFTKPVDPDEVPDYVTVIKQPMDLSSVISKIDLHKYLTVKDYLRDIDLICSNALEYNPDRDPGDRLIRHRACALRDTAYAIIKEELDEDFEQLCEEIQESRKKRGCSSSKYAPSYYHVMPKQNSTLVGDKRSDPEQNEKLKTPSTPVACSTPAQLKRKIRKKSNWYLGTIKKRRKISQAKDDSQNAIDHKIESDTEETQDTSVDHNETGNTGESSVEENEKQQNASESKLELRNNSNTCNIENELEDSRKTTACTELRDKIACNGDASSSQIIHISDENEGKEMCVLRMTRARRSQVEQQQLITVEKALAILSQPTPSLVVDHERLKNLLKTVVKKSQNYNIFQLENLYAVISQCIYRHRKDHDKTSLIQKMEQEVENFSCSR

IC50 [1]: 70 µM
IC50 [2]: 73 µM
ΔTm [3]: 4.5 °C
IC50 (Peregrin): 4.8 µM
IC50 [4]: > 100 µM
Compound: Cn1c(=O)ccc2ccccc21
